Test results reported in patent US8642597B2, “Pyrazole compounds for controlling invertebrate pests” (BASF SE, priority 2007, dated 2014).

How the values were obtained:
Type in all cases: in vivo
[1] = tested on: Cotton Aphid (aphis gossypii, Mixed Life Stages); experiment: Cotton aphid (aphis gossypii, mixed life stages), cotyledon dip test; conditions: 120 h, mortality counts after 5 days, in comparison with untreated controls
From the text: (§1) The active compounds were formulated in 50:50 (vol:vol) acetone:water and 100 ppm Kinetica™ surfactant.
Cotton plants at the cotyledon stage (one plant per pot) were infested by placing a heavily infested leaf from the main colony on top of each cotyledon. The aphids were allowed to transfer to the host plant overnight, and the leaf used to transfer the aphids was removed. The cotyledons were dipped in the test solution and allowed to dry. After 5 days, mortality counts were made.

[2] = tested on: Cowpea Aphid (aphis craccivora); experiment: Cowpea aphid (aphis craccivora), spray on potted cowpea plants; conditions: population reduction assessed after 24, 72 and 120 hours, in comparison with untreated controls
Protocol: The active compounds were formulated in 50:50 (vol:vol) acetone:water. The test solution was prepared at the day of use.
Potted cowpea plants colonized with 100-150 aphids of various stages were sprayed after the pest population had been recorded. Population reduction was assessed after 24, 72, and 120 hours.

[3] = tested on: Green Peach Aphid (Myzus persicae, Mixed Life Stages); experiment: Green peach aphid (Myzus persicae, mixed life stages), pepper leaf dip test; conditions: foliar, 120 h, after 5 days, in comparison with untreated controls
From the text: as §1
Pepper plants in the 2nd leaf-pair stage (variety ‘California Wonder’) were infested with approximately 40 laboratory-reared aphids by placing infested leaf sections on top of the test plants. The leaf sections were removed after 24 hr. The leaves of the intact plants were dipped into gradient solutions of the test compound and allowed to dry. Test plants were maintained under fluorescent light (24 hour photoperiod) at about 25° C. and 20-40% relative humidity. Aphid mortality on the treated plants, relative to mortality on check plants, was determined after 5 days.

[4] = tested on: Silverleaf Whitefly (bemisia argentifolii, adult); experiment: Silverleaf whitefly (bemisia argentifolii, adult), cotton cotyledon dip test; conditions: 72 h, 3 days after treatment, in comparison with untreated controls
Protocol: as §1
Selected cotton plants were grown to the cotyledon state (one plant per pot). The cotyledons were dipped into the test solution to provide complete coverage of the foliage and placed in a well-vented area to dry. Each pot with treated seedling was placed in a plastic cup and 10 to 12 whitefly adults (approximately 3-5 day old) were introduced. The insects were collected using an aspirator and an 0.6 cm, non-toxic Tygon® tubing (R-3603) connected to a barrier pipette tip. The tip, containing the collected insects, was then gently inserted into the soil containing the treated plant, allowing insects to crawl out of the tip to reach the foliage for feeding. The cups were covered with a reusable screened lid (150 micron mesh polyester screen PeCap from Tetko Inc). Test plants were maintained in the holding room at about 25° C. and 20-40% relative humidity for 3 days avoiding direct exposure to the fluorescent light (24 hour photoperiod) to prevent trapping of heat inside the cup. Mortality was assessed 3 days after treatment of the plants.

[5] = tested on: Vetch Aphid (Megoura viciae); experiment: Vetch aphid (Megoura viciae), bean leaf disk microtiterplate test; conditions: foliar, 144 h, concentration of the test solution 2500 mg/L, 6 days
Protocol: The active compounds were formulated in 1:3 (vol:vol) DMSO:water with different concentrations of formulated compounds.
Bean leaf disks were placed into microtiterplates filled with 0.8% agar-agar and 2.5 ppm OPUS™. The leaf disks were sprayed with 2.5 μl of the test solution and 5 to 8 adult aphids were placed into the microtiterplates which were then closed and kept at 23±1° C. and 50±5% relative humidity under fluorescent light for 6 days. Mortality was assessed on the basis of vital, reproduced aphids. Aphid mortality and fecundity was then visually assessed.

[6] = tested on: Bean Aphid (Aphis fabae); experiment: Bean aphid (Aphis fabae), nasturtium plant dip test; conditions: 72 h, after 3 days, in comparison with untreated controls
From the text: as §1
Nasturtium plants grown in Metro mix in the 1st leaf-pair stage (variety ‘Mixed Jewel’) were infested with approximately 2-30 laboratory-reared aphids by placing infested cut plants on top of the test plants. The cut plants were removed after 24 hr. Each plant was dipped into the test solution to provide complete coverage of the foliage, stem, protruding seed surface and surrounding cube surface and allowed to dry in the fume hood. The treated plants were kept at about 25° C. with continuous fluorescent light. Aphid mortality is determined after 3 days.

[7] = tested on: Boll Weevil (Anthonomus grandis); experiment: Boll weevil (Anthonomus grandis), insect diet microtiter plate test; conditions: 120 h, concentration of the test solution 2500 mg/L, egg and larval mortality after 5 days
Protocol: The compounds were formulated in 75:25 (vol:vol) water:DMSO.
For evaluating control of boll weevil (Anthonomus grandis) the test unit consisted of 24-well-microtiter plates containing an insect diet and 20-30 A. grandis eggs. Different concentrations of formulated compounds were sprayed onto the insect diet at 20 μl, using a custom built micro atomizer, at two replications. After application, the microtiter plates were incubated at 23±1° C. and 50±5% relative humidity for 5 days. Egg and larval mortality was then visually assessed.

[8] = tested on: Southern Armyworm (spodoptera eridania, 2nd instar larvae); experiment: Southern armyworm (spodoptera eridania, 2nd instar larvae), lima bean leaf dip test; conditions: foliar, 96 h, at 4 days, in comparison with untreated controls
Protocol: as §1
A pair of first true leaves of Sieva lima bean was dipped in the test solution and allowed to dry. The leaf was then placed in a plastic perforated zip enclosure bag and ten 2nd instar larvae were added. At 4 days, observations were made of mortality and reduced feeding.

[9] = tested on: Mediterranean Fruitfly (Ceratitis capitata); experiment: Activity against Mediterranean fruitfly (Ceratitis capitata), insect diet microtiter plate test; conditions: 120 h, eggs treated with 2500 ppm, egg and larval mortality after 5 days
Protocol: The active compounds were formulated in 1:3 (vol:vol) DMSO:water.
For evaluating control of Mediterranean fruitfly the test unit consisted of microtiter plates containing an insect diet and 50 to 80 C. capitata eggs.
Different concentrations of formulated compounds were sprayed onto the insect diet at 5 μl, using a custom built micro atomizer, at two replications. After application, microtiter plates were incubated at 28±1° C. and 80±5% relative humidity for 5 days. Egg and larval mortality was then visually assessed.

| Compound | mortality at 300 ppm [1] [%] | mortality at 300 ppm [2] [%] | mortality at 300 ppm [3] [%] | mortality at 300 ppm [4] [%] | mortality at 2500 µg/mL [5] [%] | mortality at 10 ppm [6] [%] | mortality at 2500 µg/mL [7] [%] | mortality at 300 ppm [8] [%] | mortality at 2500 ppm [9] [%] |
| --- | --- | --- | --- | --- | --- | --- | --- | --- | --- |
| O=C(Nc1cccnc1)c1cnn(Cc2ccccc2)c1 [Compound 82] | ≥ 75 | ≥ 75 | ≥ 50 | ≥ 50 | – | – | – | – | – |
| CCN(C(=O)c1cn(C)nc1C(F)(F)F)c1cccnc1 [Compound 127] | ≥ 75 | – | ≥ 50 | – | ≥ 80 | ≥ 90 | – | – | – |
| Cn1ncc(C(=O)Nc2cccnc2)c1C(F)(F)F [Compound 109] | ≥ 75 | ≥ 75 | ≥ 50 | ≥ 50 | ≥ 80 | – | 100 | – | – |
| CC(C)Cn1cc(C(=O)Nc2cccnc2)cn1 [Compound 98] | ≥ 75 | ≥ 75 | ≥ 50 | – | ≥ 80 | – | – | ≥ 50 | – |
| CN(C(=O)c1cnn(C(F)F)c1C(F)F)c1cccnc1 [Compound 189] | ≥ 75 | ≥ 75 | ≥ 50 | – | ≥ 80 | – | 100 | ≥ 50 | – |
| Cc1nn(C(F)F)cc1C(=O)N(C)c1cccnc1 [Compound 229] | ≥ 75 | – | ≥ 50 | ≥ 50 | – | – | – | – | – |
| Cc1c(C(=O)N(C)c2cccnc2)cnn1C(F)F [Compound 220] | ≥ 75 | ≥ 75 | ≥ 50 | – | ≥ 80 | – | 100 | ≥ 50 | – |
| CC(=O)N(C(=O)c1cn(C)nc1C(F)(F)F)c1cccnc1 [Compound 134] | ≥ 75 | ≥ 75 | ≥ 50 | ≥ 50 | ≥ 80 | – | – | – | – |
| CN(C(=O)c1cn(CC(F)F)nc1C(F)(F)F)c1cccnc1 [Compound 234] | – | – | – | – | ≥ 80 | – | 100 | – | 50 |
| CCn1cc(C(=O)Nc2cccnc2)cn1 [Compound 102] | ≥ 75 | ≥ 75 | ≥ 50 | ≥ 50 | ≥ 80 | – | 100 | – | – |
| Cc1nn(-c2ccccc2)cc1C(=O)Nc1cccnc1 [Compound 84] | – | – | – | ≥ 50 | – | – | – | – | 50 |
| O=C(Nc1cccnc1)c1cn(-c2ccc(Cl)cc2)nc1C(F)(F)F [Compound 73] | ≥ 75 | ≥ 75 | ≥ 50 | ≥ 50 | ≥ 80 | – | – | – | – |
| Cc1cccc(-n2ncc(C(=O)Nc3cccnc3)c2C(F)F)c1 [Compound 158] | ≥ 75 | ≥ 75 | ≥ 50 | – | ≥ 80 | – | – | ≥ 50 | – |
| Cc1c(C(=O)Nc2cccnc2)cnn1-c1ccc(Cl)cc1 [Compound 142] | ≥ 75 | ≥ 75 | ≥ 50 | – | ≥ 80 | ≥ 90 | – | – | – |
| O=C(Nc1cccnc1)c1cn(CC(F)F)nc1C(F)(F)F [Compound 232] | – | – | – | – | ≥ 80 | – | – | – | 50 |
| O=C(Nc1cccnc1)c1cnn(-c2ccccc2)c1Cl [Compound 123] | ≥ 75 | ≥ 75 | ≥ 50 | – | ≥ 80 | ≥ 90 | – | – | – |

| Compound | mortality at 300 ppm [1] [%] | mortality at 300 ppm [2] [%] | mortality at 300 ppm [3] [%] | mortality at 300 ppm [4] [%] | mortality at 2500 µg/mL [5] [%] | mortality at 10 ppm [6] [%] | mortality at 2500 µg/mL [7] [%] | mortality at 300 ppm [8] [%] | mortality at 2500 ppm [9] [%] |
| --- | --- | --- | --- | --- | --- | --- | --- | --- | --- |
| Cn1ncc(C(=O)Nc2cccnc2)c1C1CC1 [Compound 89] | ≥ 75 | ≥ 75 | ≥ 50 | ≥ 50 | ≥ 80 | – | – | – | – |
| CCc1c(C(=O)Nc2cccnc2)cnn1CC [Compound 184] | ≥ 75 | ≥ 75 | ≥ 50 | – | ≥ 80 | – | – | – | 50 |
| Cn1ncc(C(=O)Nc2cccnc2)c1Cl [Compound 83] | ≥ 75 | ≥ 75 | ≥ 50 | ≥ 50 | – | – | – | – | – |
| Cc1c(C(=O)Nc2cccnc2)cnn1-c1ccc([N+](=O)[O-])cc1 [Compound 231] | – | – | – | – | ≥ 80 | – | – | – | 50 |
| CN(C(=O)c1cnn(C(F)F)c1C(F)(F)F)c1cccnc1 [Compound 191] | ≥ 75 | ≥ 75 | – | – | ≥ 80 | – | 100 | ≥ 50 | – |
| O=C(Nc1cccnc1)c1cnn(-c2cccc(Cl)c2)c1C(F)F [Compound 157] | ≥ 75 | ≥ 75 | ≥ 50 | – | ≥ 80 | – | 100 | ≥ 50 | – |
| O=C(Nc1cccnc1)c1cn[nH]c1-c1cccs1 [Compound 77] | – | – | – | – | – | – | – | ≥ 50 | 50 |
| O=C(Nc1cccnc1)c1cnn(-c2ccc(F)cc2)c1C(F)(F)F [Compound 228] | ≥ 75 | – | ≥ 50 | – | ≥ 80 | – | – | ≥ 50 | – |
| CCn1cc(C(=O)N(C)c2cccnc2)c(C(F)(F)F)n1 [Compound 183] | ≥ 75 | ≥ 75 | ≥ 50 | – | ≥ 80 | – | – | – | 50 |
| CCCc1c(C(=O)Nc2cccnc2)cnn1-c1ccc(Cl)cc1 [Compound 79] | – | ≥ 75 | ≥ 50 | – | – | – | – | ≥ 50 | 50 |
| CCn1ncc(C(=O)N(C)c2cccnc2)c1C [Compound 180] | ≥ 75 | ≥ 75 | ≥ 50 | ≥ 50 | – | – | – | – | – |
| CCCN(C(=O)c1cn(C)nc1C(F)(F)F)c1cccnc1 [Compound 129] | – | – | – | – | – | ≥ 90 | – | – | – |
| Cn1cc(C(=O)Nc2cccnc2)c(C(F)(F)F)n1 [Compound 196] | ≥ 75 | ≥ 75 | ≥ 50 | – | – | – | – | ≥ 50 | – |
| Cn1cc(C(=O)Nc2cccnc2)c(C(F)(F)F)n1 [Compound 100] | – | – | – | ≥ 50 | ≥ 80 | – | – | – | 50 |
| CCn1cc(C(=O)Nc2cccnc2)c(C(F)F)n1 [Compound 181] | ≥ 75 | ≥ 75 | ≥ 50 | – | ≥ 80 | – | – | – | 50 |
